Assay results from patent US11401271B2, “Fused heterocyclic compound, pyrazole-ring-containing fused heterocyclic compound, agricultural composition containing thereof, and method of using the composition” (SOUTH CHINA AGRICULTURAL UNIVERSITY, priority 2017, dated 2022).
Read-outs that look alike come from different tables or passages of the source.

Experiments:
Format in all cases: in vivo
Plutella xylostella = assay: whole plant or invertebrate; settings: Plutella xylostella, read-out: Plutella xylostella Mortality (%) 500 ppm
In short: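 Leaf immersion feeding test: 2nd-instar larvae (about 35 per vessel, 3 replicates) kept at 28° C. on 1.0 cm cabbage discs soaked 5 s in a 500 ppm solution with 0.05% Tween-80. Mortality after 24 h of exposure, calculated relative to live larvae in the Tween-80 control.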

Spodoptera exigua = assay: whole plant or invertebrate; settings: Spodoptera exigua, 24 h, read-out: Spodoptera exigua Mortality (%) 500 ppm
In short: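 Leaf immersion feeding: second-instar larvae (about 35 per vessel, triplicate) kept at 28° C on discs treated with 500 ppm test solution in 0.05% Tween-80. Mortality at 24 h, calculated relative to surviving larvae in the solvent control.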

Aphis craccivora = assay: whole plant or invertebrate; settings: Aphis craccivora, 24 h, read-out: Aphis craccivora Mortality (%) 500 ppm
In short: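 Mortality scored 24 h after treatment as the reduction in live aphids versus a 0.05% Tween-80 control; three replicates, 23° C. Treatment was a 5 s immersion of wingless adults on bean sprouts in 500 ppm test solution containing 0.05% Tween-80, followed by air-drying.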

Bombyx mori L. = assay: Toxicity test on 2nd-instar larvae of Bombyx mori L., leaf immersion feeding method; settings: 1000 ppm, 24 hours
In short: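 Second-instar silkworm larvae (~35 per vessel, 3 replicates) fed mulberry leaves dipped 5 s in 1000 ppm compound (0.05% Tween-80; DMSO stock diluted), held at 25 °C. Deaths counted after 24 hours; mortality % corrected against Tween-80 control survivors.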

Apis cernan = assay: Toxicity test on adult worker bees of Apis cernan, small beaker method; settings: 500 ppm, 48 hours
In short: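 Same-size adult Apis cernan workers, collected the test morning, exposed in groups of 15 to cotton soaked with 500 ppm test liquid (small beaker method). Kept sealed in a dark climate box; live and dead bees counted after 48 h.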

Solenopsis invicta = assay: whole plant or invertebrate; settings: Solenopsis invicta, water test tube poison-feeding
In short: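 Mortality (%) of Solenopsis invicta, computed against live counts in control tubes, was recorded 24 h and 72 h after treatment at 25 °C. Compound was offered by oral feeding in test tubes at 100 ppm, diluted from a 10 g/L DMSO stock into water with 5% honey and 0.05% Tween-80.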

[1] = 24 h, read-out: Solenopsis invicta Mortality (%) 100 ppm 24 h, 100 ppm, 24 h
[2] = 72 h, read-out: Solenopsis invicta Mortality (%) 100 ppm 72 h, 100 ppm, 72 h

| Structure (SMILES) | mortality at 500 ppm (Plutella xylostella) | mortality at 500 ppm (Spodoptera exigua) | mortality at 500 ppm (Aphis craccivora) | Toxicity determination Bombyx mori L. Mortality (%) (Bombyx mori L.) | Toxicity determination Apis cernan Mortality (%) (Apis cernan) | mortality at 100 ppm (Solenopsis invicta; [1]) | mortality at 100 ppm (Solenopsis invicta; [2]) |
| --- | --- | --- | --- | --- | --- | --- | --- |
| COC(=O)CC1(C(=O)OC)c2cc(C(F)(F)F)cc(Cl)c2-n2nc(C#N)c([S+]([O-])C(F)(F)F)c2N1C(C)=O (stereo not drawn) [Compound C40] | 100% | 95% | 100% | 4% | 4% | 28% | 90% |
| CC(=O)c1nn2c(c1[S+](C)[O-])NC(CC#N)(C(=O)O)c1cc(C(F)(F)F)cc(Cl)c1-2 (stereo not drawn) [Compound C43] | 86% | 89% | 95% | 0% | 4% | 18% | 80% |
| CNC(=O)C1(CC#N)Nc2c([S+](C)[O-])c(C(C)=O)nn2-c2c(Cl)cc(C(F)(F)F)cc21 (stereo not drawn) [Compound C45] | 93% | 97% | 86% | 6% | 3% | 25% | 71% |
| CNC(=O)C1(CC(=O)OC)Nc2c([S+](C)[O-])c(C(C)=O)nn2-c2c(Cl)cc(C(F)(F)F)cc21 (stereo not drawn) [Compound C46] | 89% | 91% | 90% | 5% | 3% | 21% | 80% |
| C=CC1Nc2c(-c3cc(C)oc3C)c(C#N)nn2-c2c(Cl)cc(C(F)(F)F)cc21 (stereo not drawn) [Compound C50] | 81% | 86% | 90% | 5% | 2% | 26% | 86% |
| N#Cc1nn2c(c1[S+]([O-])C(F)(F)F)NC(C(O)CO)c1cc(C(F)(F)F)cc(Cl)c1-2 (stereo not drawn) [Compound C51] | 87% | 85% | 79% | 9% | 5% | 19% | 86% |
| Cc1cc(-c2c(C#N)nn3c2NC(C(O)CO)c2cc(C(F)(F)F)cc(Cl)c2-3)c(C)o1 (stereo not drawn) [Compound C52] | 90% | 91% | 100% | 10% | 7% | 22% | 90% |
| N#Cc1nn2c(c1[S+]([O-])C(F)(F)F)NC(CC(F)(F)F)(C(O)CO)c1cc(C(F)(F)F)cc(Cl)c1-2 (stereo not drawn) [Compound C56] | 82% | 87% | 91% | 6% | 8% | 27% | 80% |
| COC(=O)/C=C/C1(CC#N)Nc2c([S+]([O-])C(F)(F)F)c(C#N)nn2-c2c(Cl)cc(C(F)(F)F)cc21 (stereo not drawn) [Compound C58] | 100% | 100% | 100% | 4% | 4% | 29% | 98% |
| C=CC1(C=C)Nc2c(Br)c(CC)nn2-c2c(Cl)cc(C(F)(F)F)cc21 [Compound C61] | 88% | 100% | 90% | 9% | 10% | 28% | 100% |
| C=CC1(C=C)Nc2c(-c3cc(C)sc3C)c(CC)nn2-c2c(Cl)cc(C(F)(F)F)cc21 [Compound C62] | 80% | 85% | 97% | 10% | 11% | 27% | 100% |
| CCc1nn2c(c1-c1cc(C)sc1C)NC(/C=C\C(=O)OC)(/C=C/C(=O)OC)c1cc(C(F)(F)F)cc(Cl)c1-2 (stereo not drawn) [Compound C64] | 92% | 97% | 100% | 7% | 9% | 17% | 90% |
